Consider two compounds from patent publication US12139526B2, “Modified chimeric receptors and related compositions and methods” (Juno Therapeutics, Inc., priority 2015, dated 2024).

The series relates to post-infusion PBMC samples.

Peptide text beside a SMILES is read from it.

Method: Epitope mapping was carried out to assess region(s) of the CAR recognized by the specific immune responses. Pre- and post-infusion PBMC samples were stimulated in the presence of individual pools of multiple 15-mer peptides, with sequences representing overlapping portions (11 amino acid overlap) of the entire length of an approximately 500 amino acid sequence of the CAR expressed by the administered cells. Cells were stained with antibodies to detect CD8 and CD4 surface expression and intracellular expression of cytokine. Twenty-three (23) pools were assessed, each containing ten (10) peptides each and collectively including 125 individual overlapping peptides, with each peptide represented in at least two of the pools.
This design permitted the generation of an analytic grid to assess responses specific for individual peptides, whereby a peptide present in more than one pool detected as hits in this assay was deemed a potentially immunogenic peptide hit.
Individual ELISpot assays were performed using an anti-cytokine capture antibody to assess the presence or absence of a specific immune response for each of these individual hits (see Berger et al. (2006): Berger et al. (2001): Riddell et al. (1996); and Berger et al. (2005), supra).

`CC[C@H](C)[C@H](NC(=O)[C@H](Cc1ccccc1)NC(=O)[C@H](C)N)C(=O)N[C@H](C(=O)N[C@@H](Cc1ccccc1)C(=O)N[C@@H](Cc1c[nH]c2ccccc12)C(=O)N[C@H](C(=O)N[C@@H](CCCCN)C(=O)N[C@@H](CCCNC(=N)N)C(=O)NCC(=O)N[C@@H](CCCNC(=N)N)C(=O)N[C@@H](CCCCN)C(=O)N[C@@H](CCCCN)C(=O)N[C@@H](CC(C)C)C(=O)N[C@@H](CC(C)C)C(=O)O)C(C)C)[C@@H](C)CC` (H-AFIIFWVKRGRKKLL-OH; N-terminus and C-terminus assumed): the “specific immune response (ELISpot)” value is on record as “specific immune responses also were detected”.

For the compound `CC[C@H](C)[C@H](NC(=O)[C@H](Cc1ccc(O)cc1)NC(=O)[C@H](CC(C)C)NC(=O)[C@H](CC(C)C)NC(=O)[C@H](CCCCN)NC(=O)[C@H](CCCCN)NC(=O)[C@H](CCCNC(=N)N)NC(=O)CNC(=O)[C@H](CCCNC(=N)N)NC(=O)[C@H](CCCCN)NC(=O)[C@@H](NC(=O)[C@H](Cc1c[nH]c2ccccc12)NC(=O)[C@@H](N)Cc1ccccc1)C(C)C)C(=O)N[C@@H](Cc1ccccc1)C(=O)N[C@@H](CCCCN)C(=O)O` (H-FWVKRGRKKLLYIFK-OH; N-terminus and C-terminus assumed), the “specific immune response (ELISpot)” value is “specific immune responses also were detected”.
